{"source": "PubChem BioAssay AID2060503", "about": "(Molecular Pharmacology Branch, DTP, NCI, 2025);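 also: spheroids exposed to agents for 7 days before readout; percent viability relative to DMSO vehicle control taken as 100%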", "data": [{"test_system": "817829-284-R-J1-PDC complex spheroids, viability", "assay": "Anticancer human tumor 817829-284-R-J1-PDC patient-derived colon adenocarcinoma cell line growth inhibition [GQUAD]", "conditions": "second compound 10 µM; first compound 0.0316 µM; active compounds read low", "summary_of_the_method": "(§1)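 Viability of tumor cells grown as complex spheroids with endothelial and stromal cells, exposed to drug combinations. Top concentration at or near clinical Cmax (else 10 microM), diluted in half-log increments.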", "units": {"viability, T/C": "%"}, "values": [{"smiles": "CCCS(=O)(=O)Nc1ccc(F)c(C(=O)c2c[nH]c3ncc(-c4ccc(Cl)cc4)cc23)c1F", "note": "+ CN(C)c1ccc(Nc2c3ccc(NC(=O)CCN4CCCC4)cc3nc3cc(NC(=O)CCN4CCCC4)ccc23)cc1", "viability, T/C": 94.4}, {"smiles": "COc1ncnc(C2CC2)c1-c1ncc2cnn(Cc3ccc(-c4nc(C(F)(F)F)cn4C(C)C)cc3)c2n1", "note": "+ CN(C)c1ccc(Nc2c3ccc(NC(=O)CCN4CCCC4)cc3nc3cc(NC(=O)CCN4CCCC4)ccc23)cc1", "viability, T/C": 114}, {"smiles": "Cc1[nH]c2ccccc2c1CCNCc1ccc(/C=C/C(=O)NO)cc1", "note": "+ CN(C)c1ccc(Nc2c3ccc(NC(=O)CCN4CCCC4)cc3nc3cc(NC(=O)CCN4CCCC4)ccc23)cc1", "viability, T/C": 27.2}, {"smiles": "O=C(NO)c1cnc(N2CCN(S(=O)(=O)c3ccc4ccccc4c3)CC2)nc1", "note": "+ CN(C)c1ccc(Nc2c3ccc(NC(=O)CCN4CCCC4)cc3nc3cc(NC(=O)CCN4CCCC4)ccc23)cc1", "viability, T/C": 102}, {"smiles": "CC1COCCN1c1cc(C2(O)CC3CCC(C2)O3)c2cnn(-c3ccn[nH]3)c2n1", "note": "(configuration not stated) + Cc1[nH]c2ccc(F)cc2c1-c1nc2c3cccnc3c3ncccc3c2[nH]1", "viability, T/C": 6.89}]}, {"test_system": "817829-284-R-J1-PDC complex spheroids, viability", "assay": "Anticancer human tumor 817829-284-R-J1-PDC cell line growth inhibition [GQUAD]", "conditions": "second compound 10 µM; first compound 0.0999 µM; active compounds read low", "summary_of_the_method": "as §1", "units": {"viability, T/C": "%"}, "values": [{"smiles": "Cc1[nH]c2ccccc2c1CCNCc1ccc(/C=C/C(=O)NO)cc1", "note": "+ CN(C)c1ccc(Nc2c3ccc(NC(=O)CCN4CCCC4)cc3nc3cc(NC(=O)CCN4CCCC4)ccc23)cc1", "viability, T/C": 1.95}]}, {"test_system": "817829-284-R-J1-PDC complex spheroids, viability", "assay": "Anticancer human tumor 817829-284-R-J1-PDC cell line growth inhibition [GQUAD]", "conditions": "second compound 10 µM; first compound 0.1 µM; active compounds read low", "summary_of_the_method": "as §1", "units": {"viability, T/C": "%"}, "values": [{"smiles": "C=CCn1c(=O)c2cnc(Nc3ccc(N4CCN(C)CC4)cc3)nc2n1-c1cccc(C(C)(C)O)n1", "note": "+ CN(C)c1ccc(Nc2c3ccc(NC(=O)CCN4CCCC4)cc3nc3cc(NC(=O)CCN4CCCC4)ccc23)cc1", "viability, T/C": 82.4}, {"smiles": "CCCS(=O)(=O)Nc1ccc(F)c(C(=O)c2c[nH]c3ncc(-c4ccc(Cl)cc4)cc23)c1F", "note": "+ CN(C)c1ccc(Nc2c3ccc(NC(=O)CCN4CCCC4)cc3nc3cc(NC(=O)CCN4CCCC4)ccc23)cc1", "viability, T/C": 87.3}, {"smiles": "COc1ncnc(C2CC2)c1-c1ncc2cnn(Cc3ccc(-c4nc(C(F)(F)F)cn4C(C)C)cc3)c2n1", "note": "+ CN(C)c1ccc(Nc2c3ccc(NC(=O)CCN4CCCC4)cc3nc3cc(NC(=O)CCN4CCCC4)ccc23)cc1", "viability, T/C": 108}, {"smiles": "O=C(NO)c1cnc(N2CCN(S(=O)(=O)c3ccc4ccccc4c3)CC2)nc1", "note": "+ CN(C)c1ccc(Nc2c3ccc(NC(=O)CCN4CCCC4)cc3nc3cc(NC(=O)CCN4CCCC4)ccc23)cc1", "viability, T/C": 39.8}, {"smiles": "CC1COCCN1c1cc(C2(O)CC3CCC(C2)O3)c2cnn(-c3ccn[nH]3)c2n1", "note": "(configuration not stated) + Cc1[nH]c2ccc(F)cc2c1-c1nc2c3cccnc3c3ncccc3c2[nH]1", "viability, T/C": 2.8}]}, {"test_system": "817829-284-R-J1-PDC complex spheroids, viability", "assay": "Anticancer human tumor 817829-284-R-J1-PDC cell line growth inhibition [GQUAD]", "conditions": "second compound 10 µM; first compound 0.316 µM; active compounds read low", "summary_of_the_method": "as §1", "units": {"viability, T/C": "%"}, "values": [{"smiles": "C=CCn1c(=O)c2cnc(Nc3ccc(N4CCN(C)CC4)cc3)nc2n1-c1cccc(C(C)(C)O)n1", "note": "+ CN(C)c1ccc(Nc2c3ccc(NC(=O)CCN4CCCC4)cc3nc3cc(NC(=O)CCN4CCCC4)ccc23)cc1", "viability, T/C": 24}, {"smiles": "CCCS(=O)(=O)Nc1ccc(F)c(C(=O)c2c[nH]c3ncc(-c4ccc(Cl)cc4)cc23)c1F", "note": "+ CN(C)c1ccc(Nc2c3ccc(NC(=O)CCN4CCCC4)cc3nc3cc(NC(=O)CCN4CCCC4)ccc23)cc1", "viability, T/C": 63.2}, {"smiles": "COc1ncnc(C2CC2)c1-c1ncc2cnn(Cc3ccc(-c4nc(C(F)(F)F)cn4C(C)C)cc3)c2n1", "note": "+ CN(C)c1ccc(Nc2c3ccc(NC(=O)CCN4CCCC4)cc3nc3cc(NC(=O)CCN4CCCC4)ccc23)cc1", "viability, T/C": 91.6}, {"smiles": "Cc1[nH]c2ccccc2c1CCNCc1ccc(/C=C/C(=O)NO)cc1", "note": "+ CN(C)c1ccc(Nc2c3ccc(NC(=O)CCN4CCCC4)cc3nc3cc(NC(=O)CCN4CCCC4)ccc23)cc1", "viability, T/C": 0.22}, {"smiles": "O=C(NO)c1cnc(N2CCN(S(=O)(=O)c3ccc4ccccc4c3)CC2)nc1", "note": "+ CN(C)c1ccc(Nc2c3ccc(NC(=O)CCN4CCCC4)cc3nc3cc(NC(=O)CCN4CCCC4)ccc23)cc1", "viability, T/C": 2.02}, {"smiles": "CC1COCCN1c1cc(C2(O)CC3CCC(C2)O3)c2cnn(-c3ccn[nH]3)c2n1", "note": "(configuration not stated) + Cc1[nH]c2ccc(F)cc2c1-c1nc2c3cccnc3c3ncccc3c2[nH]1", "viability, T/C": 4.24}]}, {"test_system": "817829-284-R-J1-PDC complex spheroids, viability", "assay": "Anticancer human tumor 817829-284-R-J1-PDC cell line growth inhibition [GQUAD]", "conditions": "second compound 10 µM; first compound 1 µM; active compounds read low", "summary_of_the_method": "as §1", "units": {"viability, T/C": "%"}, "values": [{"smiles": "C=CCn1c(=O)c2cnc(Nc3ccc(N4CCN(C)CC4)cc3)nc2n1-c1cccc(C(C)(C)O)n1", "note": "+ CN(C)c1ccc(Nc2c3ccc(NC(=O)CCN4CCCC4)cc3nc3cc(NC(=O)CCN4CCCC4)ccc23)cc1", "viability, T/C": 11.2}, {"smiles": "CCCS(=O)(=O)Nc1ccc(F)c(C(=O)c2c[nH]c3ncc(-c4ccc(Cl)cc4)cc23)c1F", "note": "+ CN(C)c1ccc(Nc2c3ccc(NC(=O)CCN4CCCC4)cc3nc3cc(NC(=O)CCN4CCCC4)ccc23)cc1", "viability, T/C": 66.6}, {"smiles": "COc1ncnc(C2CC2)c1-c1ncc2cnn(Cc3ccc(-c4nc(C(F)(F)F)cn4C(C)C)cc3)c2n1", "note": "+ CN(C)c1ccc(Nc2c3ccc(NC(=O)CCN4CCCC4)cc3nc3cc(NC(=O)CCN4CCCC4)ccc23)cc1", "viability, T/C": 95.3}, {"smiles": "O=C(NO)c1cnc(N2CCN(S(=O)(=O)c3ccc4ccccc4c3)CC2)nc1", "note": "+ CN(C)c1ccc(Nc2c3ccc(NC(=O)CCN4CCCC4)cc3nc3cc(NC(=O)CCN4CCCC4)ccc23)cc1", "viability, T/C": 0.23}, {"smiles": "CC1COCCN1c1cc(C2(O)CC3CCC(C2)O3)c2cnn(-c3ccn[nH]3)c2n1", "note": "(configuration not stated) + Cc1[nH]c2ccc(F)cc2c1-c1nc2c3cccnc3c3ncccc3c2[nH]1", "viability, T/C": 2.85}]}, {"test_system": "817829-284-R-J1-PDC complex spheroids, viability", "assay": "Anticancer human tumor 817829-284-R-J1-PDC cell line growth inhibition [GQUAD]", "conditions": "second compound 10 µM; first compound 3.16 µM; active compounds read low", "summary_of_the_method": "as §1", "units": {"viability, T/C": "%"}, "values": [{"smiles": "C=CCn1c(=O)c2cnc(Nc3ccc(N4CCN(C)CC4)cc3)nc2n1-c1cccc(C(C)(C)O)n1", "note": "+ CN(C)c1ccc(Nc2c3ccc(NC(=O)CCN4CCCC4)cc3nc3cc(NC(=O)CCN4CCCC4)ccc23)cc1", "viability, T/C": 7.11}, {"smiles": "CCCS(=O)(=O)Nc1ccc(F)c(C(=O)c2c[nH]c3ncc(-c4ccc(Cl)cc4)cc23)c1F", "note": "+ CN(C)c1ccc(Nc2c3ccc(NC(=O)CCN4CCCC4)cc3nc3cc(NC(=O)CCN4CCCC4)ccc23)cc1", "viability, T/C": 32.8}, {"smiles": "COc1ncnc(C2CC2)c1-c1ncc2cnn(Cc3ccc(-c4nc(C(F)(F)F)cn4C(C)C)cc3)c2n1", "note": "+ CN(C)c1ccc(Nc2c3ccc(NC(=O)CCN4CCCC4)cc3nc3cc(NC(=O)CCN4CCCC4)ccc23)cc1", "viability, T/C": 53.8}, {"smiles": "O=C(NO)c1cnc(N2CCN(S(=O)(=O)c3ccc4ccccc4c3)CC2)nc1", "note": "+ CN(C)c1ccc(Nc2c3ccc(NC(=O)CCN4CCCC4)cc3nc3cc(NC(=O)CCN4CCCC4)ccc23)cc1", "viability, T/C": 0.19}, {"smiles": "CC1COCCN1c1cc(C2(O)CC3CCC(C2)O3)c2cnn(-c3ccn[nH]3)c2n1", "note": "(configuration not stated) + Cc1[nH]c2ccc(F)cc2c1-c1nc2c3cccnc3c3ncccc3c2[nH]1", "viability, T/C": 2.85}]}, {"test_system": "817829-284-R-J1-PDC complex spheroids, viability", "assay": "Anticancer human tumor 817829-284-R-J1-PDC cell line growth inhibition [GQUAD]", "conditions": "second compound 10 µM; first compound 10 µM; active compounds read low", "summary_of_the_method": "as §1", "units": {"viability, T/C": "%"}, "values": [{"smiles": "C=CCn1c(=O)c2cnc(Nc3ccc(N4CCN(C)CC4)cc3)nc2n1-c1cccc(C(C)(C)O)n1", "note": "+ CN(C)c1ccc(Nc2c3ccc(NC(=O)CCN4CCCC4)cc3nc3cc(NC(=O)CCN4CCCC4)ccc23)cc1", "viability, T/C": 2.4}, {"smiles": "CCCS(=O)(=O)Nc1ccc(F)c(C(=O)c2c[nH]c3ncc(-c4ccc(Cl)cc4)cc23)c1F", "note": "+ CN(C)c1ccc(Nc2c3ccc(NC(=O)CCN4CCCC4)cc3nc3cc(NC(=O)CCN4CCCC4)ccc23)cc1", "viability, T/C": 7.36}, {"smiles": "COc1ncnc(C2CC2)c1-c1ncc2cnn(Cc3ccc(-c4nc(C(F)(F)F)cn4C(C)C)cc3)c2n1", "note": "+ CN(C)c1ccc(Nc2c3ccc(NC(=O)CCN4CCCC4)cc3nc3cc(NC(=O)CCN4CCCC4)ccc23)cc1", "viability, T/C": 31.1}, {"smiles": "O=C(NO)c1cnc(N2CCN(S(=O)(=O)c3ccc4ccccc4c3)CC2)nc1", "note": "+ CN(C)c1ccc(Nc2c3ccc(NC(=O)CCN4CCCC4)cc3nc3cc(NC(=O)CCN4CCCC4)ccc23)cc1", "viability, T/C": 0.19}, {"smiles": "CC1COCCN1c1cc(C2(O)CC3CCC(C2)O3)c2cnn(-c3ccn[nH]3)c2n1", "note": "(configuration not stated) + Cc1[nH]c2ccc(F)cc2c1-c1nc2c3cccnc3c3ncccc3c2[nH]1", "viability, T/C": 1.69}]}]}
